The target of assay [1] is BTK (Homo sapiens (Human), UniProt Q06187). In words: Z'-LYTE kinase inhibition assay, BTK. Type of assay: biochemical. As to conditions: read-out: % inhibition BTK; heading: % inhibition BTK; compound at 0.041 μM. How it is done: (§1) Inhibitory activities of compounds against BTK, EGFR and EGFR mutants (EGFR L858R, EGFR T790M, EGFR L858R/T790M), FGFR1, FGFR2, JAK2, JAK3 and KDR were measured by Invitrogen using Z′-LYTE® Method as briefly described in the following.
(§2) Test Compounds are screened in 1% DMSO (final) in the well. For 10 point titrations, 3-fold serial dilutions are conducted from the starting concentration. All ATP Solutions are diluted to a 4× working concentration in Kinase Buffer (50 mM HEPES pH 7.5, 0.01% BRIJ-35, 10 mM MgCl2, 1 mM EGTA). Peptide/Kinase Mixtures are diluted to a 2× working concentration in the appropriate Kinase Buffers as described below.
(v) Peptide/Kinase Mixtures for Measurement of BTK:
The 2×BTK/Tyr 01 mixture is prepared in 50 mM HEPES pH 7.5, 0.01% BRIJ-35, 10 mM MgCl2, 1 mM EGTA.
The mixture is then incubated for another 60-minute at room temperature for development reaction. Finally fluorescence is read by plate reader.
(§3) To determine IC50 of a compound against EGFR, EGFR mutant and other kinases, a series of concentrations of the compound were tested for the inhibition. […] The scale utilized in Table 4 is as follows: +++ less than 100 nM, ++ 100-500 nM and + greater than 500 nM.

Assay [2] deals with JAK2 (Homo sapiens (Human), UniProt O60674). In words: Z'-LYTE kinase inhibition assay, JAK2. Type of assay: biochemical. As to conditions: read-out: % inhibition JAK2; heading: % inhibition JAK2; compound at 0.041 μM. As to the method:
as §1, §2
(v) Peptide/Kinase Mixtures for Measurement of JAK2:
The 2×JAK2/Tyr 06 mixture is prepared in 50 mM HEPES pH 7.5, 0.01% BRIJ-35, 10 mM MgCl2, 1 mM EGTA. The final 10 μL Kinase Reaction consists of 0.06-0.81 ng JAK2 and 2 μM Tyr 06 in 50 mM HEPES pH 7.5, 0.01% BRIJ-35, 10 mM MgCl2, 1 mM EGTA. After the 1 hour Kinase Reaction incubation, 5 μL of a 1:64 dilution of Development Reagent A is added.
(§4) Reaction starts by 30-second shaking of mixture consisting of 2.5 μL 4× test compound, 5 μL 2× kinase reaction mixture and 2.5 μL 4×ATP Solution on Bar-coded Corning, low volume NBS, black 384-well plate (Corning Cat. #3676). Then the mixture is incubated for 60-minute at room temperature for the kinase reaction, followed by addition of 5 μL of a 1:1024 dilution of development reagent A and 30-second plate shake. The mixture is then incubated for another 60-minute at room temperature for development reaction. Finally fluorescence is read by plate reader.

Assay [3] deals with FGFR1 (Homo sapiens (Human), UniProt P11362). In words: Z'-LYTE kinase inhibition assay, FGFR1. As to conditions: read-out: % inhibition FGFR1; heading: % inhibition FGFR1; compound at 0.041 μM. Type of assay: biochemical. How it is done: as §1, §2
(v) Peptide/Kinase Mixtures for Measurement of FGFR1:
The 2×FGFR1/Tyr 04 mixture is prepared in 50 mM HEPES pH 7.5, 0.01% BRIJ-35, 10 mM MgCl2, 4 mM MnCl2, 1 mM EGTA, 2 mM DTT. The final 10 μL Kinase Reaction consists of 0.41-3.5 ng FGFR1 and 2 μM Tyr 04 in 50 mM HEPES pH 7.5, 0.01% BRIJ-35, 10 mM MgCl2, 2 mM MnCl2, 1 mM EGTA, 1 mM DTT. After the 1 hour Kinase Reaction incubation, 5 μL of a 1:64 dilution of Development Reagent B is added.
as §4, §3

Assay [4] concerns the target EGFR (ErbB1) T790M L858R (Homo sapiens (Human), UniProt P00533, L858R/T790M). Put plainly: Z'-LYTE kinase inhibition assay, EGFR L858R/T790M. Type of assay: biochemical. Particulars: read-out: % inhibition EGFR L858R/T790M (Compound at 0.0137 μM). How it is done:
Inhibitory activities of compounds against BTK, EGFR and EGFR mutants (EGFR L858R, EGFR T790M, EGFR L858R/T790M), FGFR1, FGFR2, JAK2, JAK3 and KDR were measured by Invitrogen using Z'-LYTE® Method as briefly described in the following. Test Compounds are screened in 1% DMSO (final) in the well. For 10 point titrations, 3-fold serial dilutions are conducted from the starting concentration. All ATP Solutions are diluted to a 4× working concentration in Kinase Buffer (50 mM HEPES pH 7.5, 0.01% BRIJ-35, 10 mM MgCl2, 1 mM EGTA). Peptide/Kinase Mixtures are diluted to a 2× working concentration in the appropriate Kinase Buffers as described below. (iv) Peptide/Kinase Mixtures for Measurement of EGFR (ErbB1) T790M L858R: The 2×EGFR (ErbB1) […] mixture is prepared in 50 mM HEPES pH 6.5, 0.01% BRIJ-35, 10 mM MgCl2, 1 mM EGTA, 0.02% NaN3. […] After the 1 hour Kinase Reaction incubation, 5 μL of a 1:64 dilution of Development Reagent B is added. Reaction starts by 30-second shaking of mixture consisting of 2.5 μL 4× test compound, 5 μL 2× kinase reaction mixture and 2.5 μL 4×ATP Solution on Bar-coded Corning, low volume NBS, black 384-well plate (Corning Cat. #3676). Then the mixture is incubated for 60-minute at room temperature for the kinase reaction, followed by addition of 5 μL of a 1:1024 dilution of development reagent A and 30-second plate shake. The mixture is then incubated for another 60-minute at room temperature for development reaction. Finally fluorescence is read by plate reader. To determine IC50 of a compound against EGFR, EGFR mutant and other kinases, a series of concentrations of the compound were tested for the inhibition.

The subject of assay [5] is H1975 tumor xenograft. In words: Inhibition of tumor growth in H1975 xenograft model. Type of assay: in vivo, BALB/c female nude mice. As to conditions: Table 7, 60 mg/kg, oral, QD × 14; for Tumor Volume Pre-treatment: baseline. How it is done:
H1975 cells were implanted in BALB/c female nude mice and grown as tumor xenografts. When tumors achieved 120-200 mm^3, mice were assigned into treatment and control groups using randomized block design based upon their tumor volumes. Each group contained 6 tumor-bearing mice. Tumors were measured twice weekly in two dimensions using a caliper, and the tumor volume was calculated from two-dimensional measurements using the equation V=0.5×a×b^2 where a and b are the long and short diameters of the tumor, respectively. Relative tumor volume (RTV) was defined as TVt/TVi, the ratio of the volume on a given day (TVt) and the volume at the start of treatment (TVi). Relative tumor growth rate (T/C) was defined as RTVT/RTVC, the ratio of relative tumor volume of treatment group (RTVT) and relative tumor volume of control group (RTVC) on a given day. Inhibition of tumor growth in a H1975 tumor xenograft model by some compounds is shown below in Table 6 and Table 7.

Sequence of JAK2 (O60674 whole entry): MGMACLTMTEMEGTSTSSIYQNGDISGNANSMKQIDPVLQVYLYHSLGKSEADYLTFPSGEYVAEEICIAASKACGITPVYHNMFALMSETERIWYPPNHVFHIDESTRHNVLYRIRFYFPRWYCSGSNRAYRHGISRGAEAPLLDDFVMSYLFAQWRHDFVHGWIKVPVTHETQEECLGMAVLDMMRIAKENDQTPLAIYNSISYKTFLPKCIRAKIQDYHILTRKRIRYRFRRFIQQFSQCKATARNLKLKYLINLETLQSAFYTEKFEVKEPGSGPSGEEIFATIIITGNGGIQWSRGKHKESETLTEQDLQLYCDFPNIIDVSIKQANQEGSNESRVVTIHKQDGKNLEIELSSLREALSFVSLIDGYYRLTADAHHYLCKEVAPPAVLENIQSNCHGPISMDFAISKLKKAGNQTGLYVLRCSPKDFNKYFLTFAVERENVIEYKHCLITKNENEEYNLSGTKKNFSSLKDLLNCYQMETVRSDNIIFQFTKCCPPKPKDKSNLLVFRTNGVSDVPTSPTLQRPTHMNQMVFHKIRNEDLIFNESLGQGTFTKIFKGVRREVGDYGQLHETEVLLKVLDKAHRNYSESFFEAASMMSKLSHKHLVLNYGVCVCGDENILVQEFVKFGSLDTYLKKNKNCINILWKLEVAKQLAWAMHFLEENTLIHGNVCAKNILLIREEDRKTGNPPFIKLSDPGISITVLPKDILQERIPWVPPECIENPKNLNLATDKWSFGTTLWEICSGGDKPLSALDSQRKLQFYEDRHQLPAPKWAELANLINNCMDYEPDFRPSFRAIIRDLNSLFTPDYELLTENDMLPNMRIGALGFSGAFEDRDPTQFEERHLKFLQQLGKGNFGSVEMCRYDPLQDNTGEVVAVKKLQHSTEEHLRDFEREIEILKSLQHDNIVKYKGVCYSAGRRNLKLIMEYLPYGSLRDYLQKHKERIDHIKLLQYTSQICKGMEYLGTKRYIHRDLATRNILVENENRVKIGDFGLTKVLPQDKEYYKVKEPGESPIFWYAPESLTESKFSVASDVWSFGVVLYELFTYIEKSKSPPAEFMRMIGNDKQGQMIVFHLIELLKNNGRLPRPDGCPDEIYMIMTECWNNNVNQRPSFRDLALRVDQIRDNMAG
Sequence of EGFR (ErbB1) T790M L858R (P00533 25-1210 T790M/L858R): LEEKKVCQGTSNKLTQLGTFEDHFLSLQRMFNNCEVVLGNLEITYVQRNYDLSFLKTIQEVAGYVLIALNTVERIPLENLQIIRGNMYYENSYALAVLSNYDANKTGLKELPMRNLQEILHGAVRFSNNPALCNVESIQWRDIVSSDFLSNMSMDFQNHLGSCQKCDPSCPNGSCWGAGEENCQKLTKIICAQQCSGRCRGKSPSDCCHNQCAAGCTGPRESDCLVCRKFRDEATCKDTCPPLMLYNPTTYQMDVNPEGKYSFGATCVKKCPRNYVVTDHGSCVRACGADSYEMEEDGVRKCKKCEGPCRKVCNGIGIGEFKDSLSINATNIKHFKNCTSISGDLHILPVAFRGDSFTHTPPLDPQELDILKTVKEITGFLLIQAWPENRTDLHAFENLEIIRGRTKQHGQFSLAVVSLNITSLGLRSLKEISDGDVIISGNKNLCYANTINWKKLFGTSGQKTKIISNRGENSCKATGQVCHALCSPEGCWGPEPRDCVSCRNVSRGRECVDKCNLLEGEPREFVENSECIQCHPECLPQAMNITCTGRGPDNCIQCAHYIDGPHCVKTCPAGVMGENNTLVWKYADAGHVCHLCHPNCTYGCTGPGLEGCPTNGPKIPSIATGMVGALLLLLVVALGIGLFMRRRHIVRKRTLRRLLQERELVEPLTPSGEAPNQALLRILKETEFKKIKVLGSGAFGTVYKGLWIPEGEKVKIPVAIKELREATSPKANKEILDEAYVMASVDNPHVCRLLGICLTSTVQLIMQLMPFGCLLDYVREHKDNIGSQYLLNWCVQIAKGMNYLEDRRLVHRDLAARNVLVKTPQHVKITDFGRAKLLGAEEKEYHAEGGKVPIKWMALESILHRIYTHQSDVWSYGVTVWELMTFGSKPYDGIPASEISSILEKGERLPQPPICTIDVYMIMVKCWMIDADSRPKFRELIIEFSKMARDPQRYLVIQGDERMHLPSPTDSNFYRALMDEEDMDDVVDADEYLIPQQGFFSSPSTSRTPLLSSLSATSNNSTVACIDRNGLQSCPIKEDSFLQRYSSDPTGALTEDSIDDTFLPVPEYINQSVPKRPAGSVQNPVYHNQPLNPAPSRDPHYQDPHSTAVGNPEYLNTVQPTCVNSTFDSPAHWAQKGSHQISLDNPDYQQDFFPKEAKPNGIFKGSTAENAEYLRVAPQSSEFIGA
Sequence of BTK (Q06187 whole entry): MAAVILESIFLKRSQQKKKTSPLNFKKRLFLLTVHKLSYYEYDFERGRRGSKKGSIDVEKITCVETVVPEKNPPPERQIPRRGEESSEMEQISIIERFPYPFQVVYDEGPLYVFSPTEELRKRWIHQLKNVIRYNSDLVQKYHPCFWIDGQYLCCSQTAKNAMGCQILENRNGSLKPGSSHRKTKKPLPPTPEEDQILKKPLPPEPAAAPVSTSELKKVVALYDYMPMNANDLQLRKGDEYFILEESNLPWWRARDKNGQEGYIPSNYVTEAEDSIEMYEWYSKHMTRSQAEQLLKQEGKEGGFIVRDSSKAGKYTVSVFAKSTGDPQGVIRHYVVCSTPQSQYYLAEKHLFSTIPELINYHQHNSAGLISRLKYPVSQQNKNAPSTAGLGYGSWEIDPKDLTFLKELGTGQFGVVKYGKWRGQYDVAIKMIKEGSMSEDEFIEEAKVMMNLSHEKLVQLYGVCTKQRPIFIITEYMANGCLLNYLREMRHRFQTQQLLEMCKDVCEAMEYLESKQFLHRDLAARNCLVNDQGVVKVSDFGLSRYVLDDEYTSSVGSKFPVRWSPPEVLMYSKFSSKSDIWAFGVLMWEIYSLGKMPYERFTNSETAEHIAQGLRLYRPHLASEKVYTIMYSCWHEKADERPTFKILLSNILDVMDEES
Sequence of FGFR1 (P11362 22-822): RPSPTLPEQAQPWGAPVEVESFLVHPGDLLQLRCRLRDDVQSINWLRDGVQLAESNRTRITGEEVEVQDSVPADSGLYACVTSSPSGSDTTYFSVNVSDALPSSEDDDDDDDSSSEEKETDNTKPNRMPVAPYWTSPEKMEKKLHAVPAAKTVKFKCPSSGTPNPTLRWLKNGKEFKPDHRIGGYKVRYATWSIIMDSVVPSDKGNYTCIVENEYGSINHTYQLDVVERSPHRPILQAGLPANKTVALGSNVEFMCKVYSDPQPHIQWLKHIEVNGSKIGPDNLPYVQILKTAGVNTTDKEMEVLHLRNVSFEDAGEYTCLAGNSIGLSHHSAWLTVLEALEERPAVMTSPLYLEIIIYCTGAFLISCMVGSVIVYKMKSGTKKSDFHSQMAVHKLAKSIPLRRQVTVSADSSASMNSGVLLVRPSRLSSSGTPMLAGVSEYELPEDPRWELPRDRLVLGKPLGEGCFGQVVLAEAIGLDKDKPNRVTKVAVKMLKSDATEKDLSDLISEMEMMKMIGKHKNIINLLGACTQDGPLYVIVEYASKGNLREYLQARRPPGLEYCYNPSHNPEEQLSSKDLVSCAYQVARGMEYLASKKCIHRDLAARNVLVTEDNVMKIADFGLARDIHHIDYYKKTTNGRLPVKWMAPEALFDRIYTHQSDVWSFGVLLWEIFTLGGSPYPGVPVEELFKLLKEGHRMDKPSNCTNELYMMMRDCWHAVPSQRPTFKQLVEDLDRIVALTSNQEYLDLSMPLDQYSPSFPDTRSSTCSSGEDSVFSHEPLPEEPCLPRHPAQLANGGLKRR

In the case of `C=CC(=O)Nc1cccc(-c2cccc3cnc(Nc4ccc(N5CCOCC5)cc4)nc23)c1` [Example C001, N-(3-(2-((4-morpholinophenyl)amino)quinazolin-8-yl)phenyl)acrylamide], the inhibition at 0.041 µM in assay [1], in assay [2] and in assay [3] was greater than 50% throughout.
In the case of `Clc1cccc(-c2cccc3cnc(Nc4ccc(N5CCOCC5)cc4)nc23)c1` [Example C008, 8-(3-chlorophenyl)-N-(4-morpholinophenyl)quinazolin-2-amine], the inhibition at 0.041 µM in assay [1] and in assay [3] was less than 50% in each case.
Regarding `Fc1ccc(OCCN2CCOCC2)cc1-c1cccc2cnc(Nc3ccc(N4CCOCC4)cc3)nc12` [Example C023, 8-(2-fluoro-5-(2-morpholinoethoxy)phenyl)-N-(4-morpholinophenyl)quinazolin-2-amine], the inhibition at 0.041 µM in assay [1], in assay [2] and in assay [3] was less than 50% each time.
Take `C=CC(=O)Nc1cccc(-c2cccc3cnc(Nc4ccc(N5CCN(C)CC5)cc4F)nc23)c1` [Example C044, N-(3-(2-((2-fluoro-4-(4-methylpiperazin-1-yl)phenyl)amino)quinazolin-8-yl)phenyl)acrylamide]: in assay [3], the inhibition at 0.041 µM is less than 50%.
On to `C=CC(=O)Nc1cccc(-c2cccc3cnc(Nc4ccc(N5CCN(C(C)=O)CC5)cc4)nc23)c1Cl` [Example C051, N-(3-(2-((4-(4-acetylpiperazin-1-yl)phenyl)amino)quinazolin-8-yl)-2-chlorophenyl)acrylamide], for which the inhibition at 0.041 µM in assay [3] is less than 50%.
`C=CC(=O)Nc1cccc(-c2cccc3cnc(Nc4ccc(N5CCN(CCF)CC5)cc4)nc23)c1` [Example C053, N-(3-(2-((4-(4-(2-fluoroethyl)piperazin-1-yl)phenyl)amino)quinazolin-8-yl)phenyl)acrylamide]: the inhibition at 0.041 µM in assay [1], in assay [2] and in assay [3] was greater than 50% in each case.
With `C=CC(=O)Nc1cccc(-c2cccc3cnc(Nc4ccc(N5CCN(CCO)CC5)cc4)nc23)c1` [Example C059, N-(3-(2-((4-(4-(2-hydroxyethyl)piperazin-1-yl)phenyl)amino)quinazolin-8-yl)phenyl)acrylamide], the inhibition at 0.0137 µM in assay [4] is greater than 50%. Further, the inhibition at 0.041 µM in assay [3] was greater than 50%.
In the case of `C=CC(=O)Nc1cccc(-c2cccc3cnc(Nc4ccc(N5CCN(C)CC5)c(OC)c4)nc23)c1` [Example C075, N-(3-(2-((3-methoxy-4-(4-methylpiperazin-1-yl)phenyl)amino)quinazolin-8-yl)phenyl)acrylamide], the inhibition at 0.041 µM in assay [3] is greater than 50%.
With `C=CC(=O)Nc1cccc(-c2cccc3cnc(Nc4ccc(N5CCN(CCO)CC5)cc4F)nc23)c1` [Example C147, N-(3-(2-((2-fluoro-4-(4-(2-hydroxyethyl)piperazin-1-yl)phenyl)amino)quinazolin-8-yl)phenyl)acrylamide], the inhibition at 0.0137 µM in assay [4] was greater than 50%. Moreover, in assay [5], the “Tumor Volume Post-treatment” value is given as 898 mm^3 and the “Tumor Volume Pre-treatment” value was found to be 240 mm^3.
As to `C=CC(=O)Nc1cccc(-c2cccc3cnc(Nc4ccc(N5CCN(CCO)CC5)c(F)c4F)nc23)c1` [Example C151, N-(3-(2-((2,3-difluoro-4-(4-(2-hydroxyethyl)piperazin-1-yl)phenyl)amino)quinazolin-8-yl)phenyl)acrylamide], the inhibition at 0.0137 µM in assay [4] is greater than 50%. In assay [5], the “Tumor Volume Post-treatment” value was 462 mm^3 and the “Tumor Volume Pre-treatment” value is given as 229 mm^3.
As for `C=CC(=O)Nc1cccc(-c2cccc3cnc(Nc4ccc(N5CCN(C)CC5)c(F)c4F)nc23)c1` [Example C156, N-(3-(2-((2,3-difluoro-4-(4-methylpiperazin-1-yl)phenyl)amino)quinazolin-8-yl)phenyl)acrylamide], in assay [5], the “Tumor Volume Post-treatment” value stood at 594 mm^3 and the “Tumor Volume Pre-treatment” value is recorded as 232 mm^3.
